Source: article PMC8518114, “Safety, tolerability and pharmacokinetics of emodepside, a potential novel treatment for onchocerciasis (river blindness), in healthy male subjects” (British Journal of Clinical Pharmacology, 2021)

Test system: healthy male subjects
Test: Safety: treatment-emergent adverse events, MAD study
Type: in vivo, human
Experimental: Safety was assessed by monitoring adverse events (AEs) throughout the studies that were coded using the standard Medical Dictionary for Regulatory Activities (MedDRA) dictionary (versions 19.0 [SAD part 1], 20.0 [SAD part 2] and 21.1 [MAD]). Other safety monitoring included 12‐lead electrocardiography recordings, measurement of vital signs (systolic and diastolic blood pressure and heart rate), physical and neurological (Hamilton depression rating scale[17] and Beck depression inventory‐II fastscreen[18] [SAD only], mental status examination, cranial nerves assessment and motor system examination, sensation to light touch, coordination/cerebellar function assessment, Romberg's test, gait test, daytime sleepiness assessment [SAD and MAD studies]) examinations, haematology, biochemistry and urinalysis. To minimise risks in the SAD and MAD studies, subjects were dosed sequentially using sentinels in each cohort (1 IP, 1 placebo) as per European Medicines Agency guidelines.[19] If the previous dose was well tolerated, with no safety concerns, dose escalation was decided by the Safety Review Group after reviewing safety and PK data from all available cohorts. Moreover, treatment with the highest dose in the SAD study was repeated (cohort 10) for regular ophthalmological evaluations (assessments available as supplementary information) to better characterise visual AEs observed in the SAD study. Regular ophthalmological assessments were also performed in the MAD study.

CC(C)C[C@H]1C(=O)O[C@H](Cc2ccc(N3CCOCC3)cc2)C(=O)N(C)[C@@H](CC(C)C)C(=O)O[C@H](C)C(=O)N(C)[C@@H](CC(C)C)C(=O)O[C@H](Cc2ccc(N3CCOCC3)cc2)C(=O)N(C)[C@@H](CC(C)C)C(=O)O[C@H](C)C(=O)N1C [emodepside]
4 (66.7) n (%): TEAE: Infections and infestations (LSF 5 mg OD n = 6) | TEAE: Infections and infestations (LSF 10 mg OD n = 6)
3 (50.0) n (%): TEAE: Eye disorders (LSF 5 mg OD n = 6) | TEAE: Eye disorders (LSF 10 mg BID n = 6)
1 (16.7) n (%): TEAE: General disorders and administration site disorders (LSF 5 mg OD n = 6) | TEAE: Respiratory, thoracic and mediastinal disorders (LSF 5 mg OD n = 6) | TEAE: Skin and subcutaneous tissue disorders (LSF 5 mg OD n = 6) | TEAE: General disorders and administration site disorders (LSF 10 mg BID n = 6) | TEAE: Immune system disorders (LSF 10 mg BID n = 6) | TEAE: Injury, poisoning and procedural complications (LSF 10 mg BID n = 6) | TEAE: Investigations (LSF 10 mg BID n = 6) | TEAE: Musculoskeletal and connective tissue disorders (LSF 10 mg BID n = 6) | TEAE: Eye disorders (LSF 10 mg OD n = 6) | TEAE: General disorders and administration site disorders (LSF 10 mg OD n = 6) | TEAE: Metabolism and nutrition disorders (LSF 10 mg OD n = 6) | TEAE: Psychiatric disorders (LSF 10 mg OD n = 6) | TEAE: Skin and subcutaneous tissue disorders (LSF 10 mg OD n = 6) | TEAE: Surgical and medicinal procedures (LSF 10 mg OD n = 6)
0 n (%): TEAE: Immune system disorders (LSF 5 mg OD n = 6) | TEAE: Injury, poisoning and procedural complications (LSF 5 mg OD n = 6) | TEAE: Investigations (LSF 5 mg OD n = 6) | TEAE: Metabolism and nutrition disorders (LSF 5 mg OD n = 6) | TEAE: Surgical and medicinal procedures (LSF 5 mg OD n = 6) | TEAE: Gastrointestinal disorders (LSF 10 mg BID n = 6) | TEAE: Metabolism and nutrition disorders (LSF 10 mg BID n = 6) | TEAE: Nervous system disorders (LSF 10 mg BID n = 6) | TEAE: Psychiatric disorders (LSF 10 mg BID n = 6) | TEAE: Respiratory, thoracic and mediastinal disorders (LSF 10 mg BID n = 6) | TEAE: Skin and subcutaneous tissue disorders (LSF 10 mg BID n = 6) | TEAE: Surgical and medicinal procedures (LSF 10 mg BID n = 6) | TEAE: Gastrointestinal disorders (LSF 10 mg OD n = 6) | TEAE: Immune system disorders (LSF 10 mg OD n = 6) | TEAE: Injury, poisoning and procedural complications (LSF 10 mg OD n = 6) | TEAE: Investigations (LSF 10 mg OD n = 6) | TEAE: Nervous system disorders (LSF 10 mg OD n = 6) | TEAE: Respiratory, thoracic and mediastinal disorders (LSF 10 mg OD n = 6)
6 (100) n (%): Any TEAE (LSF 10 mg BID n = 6)
5 (83.3) n (%): Any TEAE (LSF 5 mg OD n = 6)
6 (100.0) n (%): Any TEAE (LSF 10 mg OD n = 6)
2 (33.3) n (%): TEAE: Gastrointestinal disorders (LSF 5 mg OD n = 6) | TEAE: Musculoskeletal and connective tissue disorders (LSF 5 mg OD n = 6) | TEAE: Nervous system disorders (LSF 5 mg OD n = 6) | TEAE: Psychiatric disorders (LSF 5 mg OD n = 6) | TEAE: Musculoskeletal and connective tissue disorders (LSF 10 mg OD n = 6)
